Results reported in US12084423B2, “Piperlongumine analogues and uses thereof” (BioVentures, LLC, priority 2018, dated 2024).

How the values were obtained:
normal WI-38 cells = assay: Cell viability of normal WI-38 cells after 72 hours of compound treatment; format: cell-based; settings: Homo sapiens, cell viability at 72 hours post-treatment
Method: (§1) Normal WI-38 cells and IR-induced senescent cells were incubated with increasing concentrations of compounds of Formula (I). At 72 hours post-treatment cell viability was measured and ED50was calculated. Table 1 depicts the ED50 values of the compounds of Formula (I) against normal and IR-induced senescent cells.

[1] = system: IR-induced senescent cells (IR-SC WI-38); assay: Cell viability of IR-induced senescent WI-38 cells after 72 hours of compound treatment; format: cell-based; settings: for EC50: Homo sapiens, IR-induced senescent WI-38 cells, cell viability at 72 hours post-treatment; for selective killing of senescent WI38 cells over normal WI38 cells: ionizing radiation (IR, 10 Gy) induced senescent vs normal WI38 cells, viability at 72 hours, percent of control
Method: as §1

Row | SMILES | EC50 (normal WI-38 cells) | EC50 [1] | selective killing of senescent WI38 cells over normal WI38 cells [1]
1 | O=C1C(Cl)=CCCN1S(=O)(=O)/C=C/c1ccccc1 [No 15] | 8.8 µM | 0.94 µM | 
2 | COc1cc(/C=C/C(=O)N2CCC=C(I)C2=O)cc(OC)c1OC [No 4] | 18.3 µM | 2.3 µM | 
3 | COc1cc(/C=C/C(=O)N2CCCC=C(Cl)C2=O)cc(OC)c1OC [No 5] | 1.7 µM | 0.45 µM | 
4 | COc1cc(/C=C/C(=O)N2OCC=CC2=O)cc(OC)c1OC [XZ-12037, (E)-2-(β-(3,4,5-trimethoxyphenyl)acryloyl)-2H-1,2-oxazin-3(6H)-one] |  |  | selectively kills senescent WI38 cells over normal WI38 cells
5 | O=C1C(Br)=CCCN1S(=O)(=O)/C=C/c1ccccc1 [No 16] | 28.1 µM | 2.8 µM | 
6 | COc1cc(/C=C/C(=O)N2CCC=C(Cl)C2=O)cc(OC)c1OC [No 2] | 5.3 µM | 0.65 µM | 
7 | COc1ccc(/C=C/C(=O)N2CCC=C(Br)C2=O)cc1 [No 9] | 1.1 µM | 0.63 µM | 
8 | COc1cc(/C=C/C(=O)N2CCCC=C(Br)C2=O)cc(OC)c1OC [No 6] | 3.6 µM | 0.56 µM | 
9 | O=C1C(Br)=CCCN1C(=O)c1cc2ccccc2oc1=O [No 13] | 6.2 µM | 1.7 µM | 
10 | COc1cc(/C=C/C(=O)N2OCC=CC2=O)cc(OC)c1OC [No 7] | 47.7 µM | 8 µM | 
11 | COc1ccc(/C=C/C(=O)N2CCC=C(Cl)C2=O)cc1 [No 8] | 0.35 µM | 0.51 µM | 
12 | COc1cc(C(Cl)=CC(=O)N2CCCC=CC2=O)cc(OC)c1OC [XZ-12089, (E)-β-chloro-1-(β-(3,4,5-trimethoxyphenyl)acryloyl)-1,5,6,7-tetrahydro-2H-azepin-2-one] |  |  | selectively kills senescent WI38 cells over normal WI38 cells
13 | O=C1C(Br)=CCCCN1C(=O)c1cc2ccccc2oc1=O [No 14] | 5 µM | 4 µM | 
14 | COc1ccc(/C=C/C(=O)N2CCCC=C(Br)C2=O)cc1 [No 11] | 5.8 µM | 1.3 µM | 
15 | COc1cc(/C=C/C(=O)N2CCC=C(F)C2=O)cc(OC)c1OC [No 1] | 12.1 µM | 15.3 µM | 
16 | COc1ccc(/C=C/C(=O)N2CCCC=C(Cl)C2=O)cc1 [No 10] | 1.5 µM | 0.16 µM | 
17 | COc1cc(/C=C/C(=O)N2CCC=C(Br)C2=O)cc(OC)c1OC [No 3] | 5.4 µM | 0.52 µM | 
18 | C=CC(=O)N1OCC=CC1=O [No 12] | 16.3 µM | 5.7 µM | 
